# Ends that are not written are not given here.
# B1: MIP-1 α: chemokine (protein, UniProt P10147 24-92, looked up)
# C-C motif chemokine 3: SLAADTPTACCFSYTSRQIPQNFIADYFETSSQCSKPGVIFLTKRSRQVCADPSEEWVQKYVSDLELSA
# B2: IL-18: interleukin (protein, UniProt P70380 36-192, looked up)
# Interleukin-18: NFGRLHCTTAVIRNINDQVLFVDKRQPVFEDMTDIDQSASEPQTRLIIYMYKDSEVRGLAVTLSVKDSKMSTLSCKNKIISFEEMDPPENIDDIQSDLIFFQKRVPGHNKMEFESSLYEGHFLACQKEDDAFKLILKKKDENGDKSVMFTLTNLHQS
# B3: KC: chemokine (protein, UniProt P12850 25-96, looked up)
# Growth-regulated alpha protein: APIANELRCQCLQTMAGIHLKNIQSLKVLPSGPHCTQTEVIATLKNGREACLDPEAPLVQKIVQKMLKGVPK
# B4: IL-2: Interleukin 2 (protein, UniProt P04351 21-169, looked up)
# Interleukin-2: APTSSSTSSSTAEAQQQQQQQQQQQQHLEQLLMDLQELLSRMENYRNLKLPRMLTFKFYLPKQATELKDLQCLEDELGPLRHVLDLTQSKSFQLEDAENFISNIRVTVVKLKGSDNTFECQFDDESATVVDFLRRWIAFCQSIISTSPQ
# B5: IL-7: interleukin (protein, UniProt P10168 26-154, looked up)
# Interleukin-7: ECHIKDKEGKAYESVLMISIDELDKMTGTDSNCPNNEPNFFRKHVCDDTKEAAFLNRAARKLKQFLKMNISEEFNVHLLTVSQGTQTLVNCTSKEEKNVKEQKKNDACFLKRLLREIKTCWNKILKGSI
# B6: IFNγ: Interferon-gamma (protein, UniProt P01580 23-155, looked up)
# Interferon gamma: HGTVIESLESLNNYFNSSGIDVEEKSLFLDIWRNWQKDGDMKILQSQIISFYLRLFEVLKDNQAISNNISVIESHLITTFFSNSKAKKDAFMSIAKFEVNNPQVQRQAFNELIRVVHQLLPESSLRKRKRSRC
# B7: IL-11: interleukin (protein, UniProt P20809 22-199, looked up)
# Interleukin-11: PGPPPGPPRVSPDPRAELDSTVLLTRSLLADTRQLAAQLRDKFPADGDHNLDSLPTLAMSAGALGALQLPGVLTRLRADLLSYLRHVQWLRRAGGSSLKTLEPELGTLQARLDRLLRRLQLLMSRLALPQPPPDPPAPPLAPPSSAWGGIRAAHAILGGLHLTLDWAVRGLLLLKTRL
# B8: IL-4: interleukin (protein, UniProt P07750 21-140, looked up)
# Interleukin-4: HIHGCDKNHLREIIGILNEVTGEGTPCTEMDVPNVLTATKNTTESELVCRASKVLRIFYLKHGKTPCLKKNSSVLMELQRLFRAFRCLDSSISCTMNESKSTSLKDFLESLKSIMQMDYS
# Assays:
# Mouse sarcoma 180 cells = test: NK cell-mediated cytotoxicity (NK-CMC) assay, LGL/S180 co-culture; format: cell-based; conditions: for NK-CMC Activity: wide range of concentrations, presence and absence of IL-2 (125 U/ml)
# Method: In one embodiment, a NK cell assay is used to assess ARP-induced cytotoxic activity of NK-like cells (see section 12.2). Briefly, by way of example but not limitation, a NK cell assay can be carried out as follows: large granular lymphocytes (LGLs) are co-cultured with tumor cells at various ratios (effector to target ratio) for four days at 37° C., 5% CO2. […] The culture is terminated at the end of day 4 and vitally stained using a MTT cell viability quantification assay (see Mossman, T. J. Immunol. Methods 65: 55 (1983); and Sigma Chemical MTT (M5655) product application note). Culture media is aspirated and the remaining cells are washed and replaced with DMEM/F12 plus FCS, containing MTT. The cells are further incubated for 4-5 hours at 37° C. Absorbance is measured with the aid of a plate reader. Decreased absorbance indicated a decrease in the number of viable cells per well (i.e., cytotoxicity). Absorbance is measured again after the MTT is solubilized by replacement of the medium with 2-propanol containing HCl, which gives a uniform color throughout the well. NK-inducing activity is calculated relative to negative (PBS/BSA) and positive (internal standard) controls.
# Spleens (10-15 per experiment) were aseptically removed from male Balb/C mice 6-10 weeks of age. Splenocytes were “squeezed” out of spleens using 2 sterile glass microscope slides. Cells were collected in approximately 10 ml of DMEM/F 12 containing 10% fetal calf serum (FCS) and gentamicin (50 μg/ml). Single cell suspensions were generated by passing collected cells through a 70 μm nylon mesh screen. After washing the cell pellet once with PBS (centrifuged at 675×g for 5 min), red blood cells were lysed by brief hypotonic shock (i.e. exposure to sterile distilled, deionized water, followed immediately with appropriate volumes of 10×PBS to return to isotonicity). Remaining cells were centrifuged and resuspended in DMEM/F12+10% FCS and transferred to 75 cm^2 flasks each containing 25 mls DMEM/F12+10% FCS (cells from 5 spleens per flask). The cells were incubated for 60 min. at 37° C. to selectively remove readily adherent cells (mainly fibroblasts and macrophages). After the incubation, the flasks were gently shaken and the non-adherent cells were removed, pelleted by centrifugation, and resuspended in DMEM/F12 (no supplements) (1.0 mL/10^8 cells). A 1.0 mL volume of these cell suspensions were carefully layered onto a 70%/60%/40% (2 mL/4 mL/4 mL) Percoll™ gradients in 15 ml centrifuge tubes and centrifuged for 30 min at 675×G. The cells which sediment at the 40/60 interface represent primarily large granular lymphocytes (LGLs), enriched with NK cells. These cells were carefully removed with a pasteur pipet, centrifuged, washed once with PBS and resuspended in approximately 5 mL DMEM/F12 supplemented with gentamicin (50 μg/mL) and 10% fetal calf serum. Cell counts and appropriate dilutions of LGL cells were made with these cells, as described below. For convenience this LGL cell preparation is interchangeably referred to as NK cells.
# Mouse sarcoma 180 cells were seeded into 96 well plates at a density of 5×10^3 cells per well in 100 μl DMEM/F12, supplemented with 10% FCS and gentamicin (50 μg/mL). […] NK cells were added in 100 μL of supplemented DMEM/F12 at designated densities: 0 NK cells/well; 5×10^4 NK cells/well (1:10 target/effector ratio); 1.25×10^5 NK cells/well (1:25 target/effector ratio); 2.5×10^5 NK cells/well (1:50 target/effector ratio); and, 5×10^5 NK cells/well (1:100 target/effector ratio). (Note: routinely, only the 1:50 and 1:100 ratios were used for screening purposes. IL2 was added as a media supplement with final concentration of 125 U/mL.). Co-cultures were incubated for 4 days at 37° C., 5% CO2, and terminated and vitally stained using a MTT cell viability quantification assay (see Mossman, T. J. Immunol. Methods 65:55 (1983); and Sigma Chemical MTT (M5655) product application note). […]
# [1] = system: freshly isolated dendritic cells (CD11c+ splenocytes); test: Dendritic cell (DC) assay: IL12 release from freshly isolated dendritic cells; format: cell-based, BALB/c mice; conditions: for DC mIL12 Release: tested for synergism and inhibition
# From the text: In a preferred embodiment, dendritic cell (DC) assay is used to follow interleukin-12 (IL-12) release from freshly isolated dendritic cells as an index of DC activation (see section 12.3). […] Briefly, by way of example but not limitation, a DC assay can be carried out as follows: freshly isolated dendritic cells (CD11c^+ splenocytes, e.g., isolated from the spleens of BALB/c mice within ten hours of assaying the activity) are suspended at a density of 0.5×10^6 cells per mL in cytokine supplemented culture media (GM-CSF, 1.0 ng/ml; IL-4, 1.0 ng/ml; IFNg, 3.0 ng/ml; anti mouse CD40, 0.5 mg/ml). […] Mouse IL-12 release from the dendritic cells (CD11c^+ splenocytes) is then measured using ELISA.
# To follow the activity in semi-purified preparations of BEX, an assay which follows IL12 release from freshly isolated dendritic cells (DCs) as an index of DC activation was developed. This activity is highly correlated with both NK-CMC in vitro and anti-tumor activity in vivo.
# DCs were isolated from the spleens of male BALB/c mice 8-12 weeks of age (Harlan Bioproducts for Science, Indianapolis, Ind.), using the magnetic assisted cell separation (MACS) system purchased from Miltenyi Biotech. In summary: Spleens were aseptically removed from mice and placed into a petri dish containing 5 mL holding media (DMEM/F12 supplemented with 10% FCS and antibiotics). Each spleen was then injected with ˜0.5 mls collagenase D solution (1 mg/mL in 10 mM Hepes-NaOH, pH 7.4, 150 mM NaCl, 5 mM MgCl2, 1.8 mM CaCl2), placed into 5-10 mL collagenase D, cut into 5-6 pieces and incubated at 37° C. for 45-60 min. Collagenase-digested spleens were then processed with glass slides and passed through a 70 μm nylon mesh cell strainer. After the strainer was flushed with 40 mL culture media, cells were centrifuged (8 min @ 200×G), suspended in 1 mL PBS and subjected to red blood cell lysis by incubating the cell suspension for 5 min at room temperature in 10 mL lysis buffer (155 mM NH4Cl, 10 mM KHCO3, 0.1 mM EDTA), followed by dilution in PBS to 50 mL and centrifugation (8 min @ 200×g). The splenocytes were then suspended in 10 mL MACS buffer (PBS pH 7.2, supplemented with 2 mM EDTA and 0.5% BSA), passed through a 40 μm nylon mesh cell strainer which was flushed with 40 mL MACS buffer. A preliminary cell count was taken at this time, prior to centrifugation (8 min @ 200×G). The splenocytes were suspended at a density of 10^8 cells per 400 μL MACS buffer. Paramagnetic MicroBeads coated with anti-CD11c^+ antibody were mixed with the splenocyte suspension (100 μL per 10^8 cells), incubated at +4° C. for 15 min, washed, suspended in 1.0 mL MACS buffer and passed through a MS+ separation column placed within a strong magnetic field. CD11c^+ cells were retained in the column whereas CD11c^− cells were washed off the column as the flow-through cell fraction. CD11c^+ cells were then collected by removing the column out of the magnetic field and flushing the column twice with 1 mL of MACS buffer. CD11c^+ cells were washed once with culture media and suspended at a density of 0.5×10^6 cells per mL in cytokine supplemented culture media {DMEM/F12 supplemented with 10% FCS and gentamicin containing mouse GM-CSF (1 ng/mL), mouse IL-4 (1 ng/mL), mouse IFNγ (3 ng/mL) and anti mouse CD40 (0.5 mg/mL)}.
# Mouse IL12 release from CD11c^+ splenocytes was measured using ELISA. Briefly, CD11c+ cell culture supernatants were sampled following an overnight incubation (usually 15-18 hrs). Media samples ([…]) were added to ELISA plates coated with anti mouse IL12 (p70) capture antibody (R&D #MAB419; 250 ng in 100 μL per well) and incubated either at 37° C. or room temperature for 2 hrs. The ELISA plates were washed extensively with wash buffer after which 100 μL per well of detection antibody/detection reagent (biotinylated anti-mouse IL12; R&D #BAF419 at 50 ng/mL and streptavidin-HRP) was added. […]
Molecule,NK-CMC Activity (Mouse sarcoma 180 cells),DC mIL12 Release [1],other results
"Cecropin A: defensin / anti-microbial peptide (KWKLFKKIEKVGQNIRDGIIKAGPAVAVVGQATQIAK; UniProt P01507 27-63, looked up)",−,,
IFN α,−,,
IL-1 β: interleukin,−^3,−,
TGF α: growth factor,−,,
N[C@@H](CCC(=O)N[C@@H](CS)C(=O)NCC(=O)O)C(=O)O [reduced glutathione],,,effect on responses in the DC assay ([1]; excess added to the assay system): lowered the responses
Cecropin P1,−,,
Magainin I,−,,
truncated molecule lacking GEADTQAWDTSVREWLVDT: E. tenella ARP with start codon moved to the 21th position (listed as Eimeria tenella),,,DC-activity compared to full-length ARP ([1]; recombinant E. tenella ARP variants): activity was lost
TNF α,,−,
"Cecropin B: defensin / anti-microbial peptide (KWKVFKKIEKMGRNIRNGIVKAGPAIAVLGEAKAL; ends and bridges not checked; UniProt P01508 27-61, looked up)",−,,
TGF β,−,−,
IL-6: interleukin,−,−,
JE/MCP-1: chemokine,−,,
IL-15: interleukin,−,,
Magainin II,−,,
IL-5: interleukin,−,−,
FGFbasic: growth factor,−,−,
B1,−,,
B2,,−,
B3,−,,
B4,,−,
B5,−,,
B6,,−,NK-CMC on direct addition (Mouse sarcoma 180 cells; added directly to NK/S180 co-cultures): slight increase; maximal response in the presence of IL-2 (Mouse sarcoma 180 cells; table footnote): ^6Weakly activates NK cells in the presence of IL-2 (maximal response <50% cytotoxicity).
B7,−,,
B8,−,,
